Read-outs that look alike come from different tables or passages of the source.

The test system of data set [1] is Pgp (MDR1 and 1199 variants) in recombinant HEK cells. Nature of the data set: Doxorubicin intracellular accumulation in recombinant HEK cells. The class given is cell-based, human. The settings on record: recombinant HEK cells expressing MDR1, any variant.
Procedure: Cells were washed with ice-cold PBS, trypsinized, and lysed in 0.5% deoxycholic acid. To precipitate the proteins tricholoracetic acid was added to 5% and the cell lysates were incubated for 30 min at 4° C. and centrifuged at 20,000 g.
The target in data set [2] is P-gp (MDR11199, G1199A) in recombinant LLC-PK1 cells (Homo sapiens, UniProt P08183, S400N).
For data set [3] the following is noted: healthy human subjects; Greiner et al. 1999; cited from earlier work.
The test system of data set [4] is LLC-PK1 control cells. Briefly: Intracellular uptake of HIV protease inhibitors. The class given is in vitro ADME, porcine.
Data set [5] concerns LLC-PK1 control cells.
Data set [6] has as its system P-gp (MDR11199, G1199A) in recombinant LLC-PK1 cells. The settings on record: human, LLC-PK1.
Data set [7] concerns the target MDR1-wt in recombinant LLC-PK1 cells (Homo sapiens, UniProt P08183, G185V/S893A).
Data set [8] has as its target MDR1-1199A in recombinant LLC-PK1 cells (Homo sapiens, UniProt P08183, G185V/S400N/S893A).
The next data set deals with MDR1 (wild type) (Homo sapiens, UniProt P08183, G185V/S893A). Nature of the data set: in vitro.
In a further data set the target is MDR1 (1199A variant) (Homo sapiens, UniProt P08183, G185V/S400N/S893A). Briefly: Intracellular uptake of HIV protease inhibitors. Conditions: recombinant LLC-PK1 cells expressing MDR1-1199A.
In data set [9] the test system is HEK negative control cells. Briefly: Cytotoxic drug sensitivity assay (MTS). The class given is cell-based, human. Conditions: HEK Control; 72hours, MTS; read-out: EC50 (Mean ± S.D.).
A further data set concerns HEK - MDR1 WT cells. Briefly: Cytotoxic drug sensitivity assay (MTS). The data set is classed as cell-based, human. Conditions: HEK MDR1 WT; 72hours, MTS; read-out: EC50 (Mean ± S.D.).
A further data set deals with HEK - MDR1 G1199T cells. Briefly: Cytotoxic drug sensitivity assay (MTS). The class given is cell-based, human. The settings on record: HEK MDR1 G1199T; 72hours, MTS; read-out: EC50 (Mean ± S.D.).
The mark [10] stands for this setting: protease inhibitor + GF120918 (1 μM).

MDR1-wt in recombinant LLC-PK1 cells, sequence (P08183 whole entry G185V/S893A): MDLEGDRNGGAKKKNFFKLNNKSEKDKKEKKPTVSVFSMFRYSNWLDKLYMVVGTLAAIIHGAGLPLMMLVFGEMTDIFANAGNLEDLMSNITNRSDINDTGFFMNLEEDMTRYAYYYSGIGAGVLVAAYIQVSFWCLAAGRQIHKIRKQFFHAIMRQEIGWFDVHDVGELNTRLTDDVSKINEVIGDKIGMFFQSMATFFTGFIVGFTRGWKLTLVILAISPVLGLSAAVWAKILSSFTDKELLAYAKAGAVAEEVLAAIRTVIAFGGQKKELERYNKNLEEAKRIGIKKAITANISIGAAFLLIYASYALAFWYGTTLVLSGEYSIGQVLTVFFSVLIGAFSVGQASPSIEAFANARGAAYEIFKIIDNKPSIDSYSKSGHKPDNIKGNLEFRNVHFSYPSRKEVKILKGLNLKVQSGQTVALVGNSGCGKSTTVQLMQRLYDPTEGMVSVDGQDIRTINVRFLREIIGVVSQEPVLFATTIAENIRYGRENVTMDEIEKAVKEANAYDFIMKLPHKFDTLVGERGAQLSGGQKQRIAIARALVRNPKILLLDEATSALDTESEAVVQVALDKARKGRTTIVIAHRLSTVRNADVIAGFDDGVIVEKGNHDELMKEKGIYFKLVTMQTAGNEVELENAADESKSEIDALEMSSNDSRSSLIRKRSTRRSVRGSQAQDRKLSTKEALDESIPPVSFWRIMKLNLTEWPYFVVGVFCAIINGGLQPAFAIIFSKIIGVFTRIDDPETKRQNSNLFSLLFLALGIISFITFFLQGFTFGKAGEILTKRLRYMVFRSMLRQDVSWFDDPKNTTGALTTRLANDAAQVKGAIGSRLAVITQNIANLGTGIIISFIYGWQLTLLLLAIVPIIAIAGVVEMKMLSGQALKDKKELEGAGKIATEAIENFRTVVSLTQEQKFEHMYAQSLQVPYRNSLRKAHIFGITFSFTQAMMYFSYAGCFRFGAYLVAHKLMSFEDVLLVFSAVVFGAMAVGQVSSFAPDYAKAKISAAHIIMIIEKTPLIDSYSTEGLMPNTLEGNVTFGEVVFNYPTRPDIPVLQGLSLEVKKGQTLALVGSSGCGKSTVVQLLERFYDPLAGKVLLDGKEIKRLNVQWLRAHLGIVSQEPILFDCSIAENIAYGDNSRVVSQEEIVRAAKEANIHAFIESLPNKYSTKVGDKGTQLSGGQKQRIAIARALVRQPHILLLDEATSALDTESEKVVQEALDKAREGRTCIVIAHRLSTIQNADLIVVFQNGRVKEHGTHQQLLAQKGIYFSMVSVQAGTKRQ
MDR1 (wild type), sequence (P08183 whole entry G185V/S893A): as above
MDR1-1199A in recombinant LLC-PK1 cells, sequence (P08183 whole entry G185V/S400N/S893A): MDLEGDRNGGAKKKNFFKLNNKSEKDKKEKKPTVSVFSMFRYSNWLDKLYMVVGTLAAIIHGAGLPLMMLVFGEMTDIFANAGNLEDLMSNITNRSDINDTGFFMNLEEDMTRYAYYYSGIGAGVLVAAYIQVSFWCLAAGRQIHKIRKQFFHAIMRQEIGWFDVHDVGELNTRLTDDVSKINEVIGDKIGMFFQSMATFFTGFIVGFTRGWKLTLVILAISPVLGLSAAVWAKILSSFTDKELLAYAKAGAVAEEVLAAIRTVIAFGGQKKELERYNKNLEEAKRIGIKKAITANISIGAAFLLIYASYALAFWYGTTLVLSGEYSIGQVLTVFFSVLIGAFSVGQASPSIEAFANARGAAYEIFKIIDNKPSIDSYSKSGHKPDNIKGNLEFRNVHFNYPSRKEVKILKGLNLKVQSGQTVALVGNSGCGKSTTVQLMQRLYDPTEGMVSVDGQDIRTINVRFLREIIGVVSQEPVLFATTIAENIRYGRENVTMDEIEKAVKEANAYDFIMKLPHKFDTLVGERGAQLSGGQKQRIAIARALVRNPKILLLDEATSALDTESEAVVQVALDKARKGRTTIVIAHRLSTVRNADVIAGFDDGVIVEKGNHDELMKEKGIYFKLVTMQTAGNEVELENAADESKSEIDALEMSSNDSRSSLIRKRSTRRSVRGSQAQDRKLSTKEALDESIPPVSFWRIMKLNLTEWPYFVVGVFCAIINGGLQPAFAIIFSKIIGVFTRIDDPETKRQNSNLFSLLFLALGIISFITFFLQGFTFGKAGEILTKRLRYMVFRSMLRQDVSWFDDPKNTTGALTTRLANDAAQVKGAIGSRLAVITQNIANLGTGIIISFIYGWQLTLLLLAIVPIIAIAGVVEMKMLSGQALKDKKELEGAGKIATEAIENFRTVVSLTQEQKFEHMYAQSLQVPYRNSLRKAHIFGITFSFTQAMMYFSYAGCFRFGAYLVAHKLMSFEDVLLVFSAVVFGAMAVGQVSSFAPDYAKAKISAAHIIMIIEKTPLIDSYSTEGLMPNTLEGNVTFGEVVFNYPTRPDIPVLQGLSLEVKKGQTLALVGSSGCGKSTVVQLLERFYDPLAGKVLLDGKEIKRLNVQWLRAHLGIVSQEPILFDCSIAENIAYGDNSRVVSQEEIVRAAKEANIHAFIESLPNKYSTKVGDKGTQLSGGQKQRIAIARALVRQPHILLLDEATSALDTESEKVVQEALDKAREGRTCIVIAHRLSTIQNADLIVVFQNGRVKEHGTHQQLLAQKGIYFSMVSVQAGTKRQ
MDR1 (1199A variant), sequence (P08183 whole entry G185V/S400N/S893A): as above

In the case of `COc1cc2c(cc1OC)CN(CCc1ccc(NC(=O)c3cccc4c(=O)c5cccc(OC)c5[nH]c34)cc1)CC2` [GF120918, N-(4-[2-(1,2,3,4-tetrahydro-6,7-dimethoxy-2-isoquinolinyl)ethyl]-phenyl)-9,10-dihydro-5-methoxy-9-oxo-4-acridine carboxamide], in data set [1], the “effect of inhibitor on reduction in intracellular doxorubicin concentration” value is recorded as “can be reversed”. In addition, the “effect of inhibitor on P-gp efflux of protease inhibitors” value in data set [2] is on record as “effectively blocked P-gp activity”.

As for `C[C@H]1O[C@@H](O[C@H]2[C@@H](O)C[C@H](O[C@H]3[C@@H](O)C[C@H](O[C@H]4CC[C@@]5(C)[C@H](CC[C@@H]6[C@@H]5C[C@@H](O)[C@]5(C)[C@@H](C7=CC(=O)OC7)CC[C@]65O)C4)O[C@@H]3C)O[C@@H]2C)C[C@H](O)[C@@H]1O` [digoxin], in data set [3], the “range in the oral bioavailability from inter-individual variation in intestinal MDR1 expression” value is listed as 7 fold.

As to `CC(C)(C)NC(=O)[C@@H]1C[C@@H]2CCCC[C@@H]2CN1C[C@@H](O)[C@H](Cc1ccccc1)NC(=O)[C@H](CC(N)=O)NC(=O)c1ccc2ccccc2n1` [saquinavir], the Km was 2 µM with LLC-PK1 control cells [4], 18 µM on MDR1 (wild type) and 14.5 µM on MDR1 (1199A variant). Moreover, the Vmax with LLC-PK1 control cells [4] worked out at 1.47 pmole/min*10^6 cells; in data set [7], 1.13 pmole/min*10^6 cells; in data set [8], 1.00 pmole/min*10^6 cells. In addition, the “Rate of transfer dQ/dt ± s.d., A → B” value stood at 3.48 ± 0.57 in the data set on LLC-PK1 control cells [5] (setting [10]) and 3.02 ± 0.35 in the data set with LLC-PK1 control cells [5] (protease inhibitor alone, 5 μM). Further, the “Rate of transfer dQ/dt ± s.d., B → A” value in the data set with LLC-PK1 control cells [5] (setting [10]) worked out at 7.36 ± 0.60; in the data set with LLC-PK1 control cells [5] (protease inhibitor alone, 5 μM), 8.03 ± 0.51. Moreover, in data set [6], the “decrease in apical-to-basolateral flux in MDR11199 cells compared to MDR1wt cells” value worked out at 2.3 fold.

For the compound ivermectin, the EC50 amounted to 4.1 ± 0.21 µM in [9], 3.809 ± 0.0273 µM with HEK - MDR1 WT cells, 3.84 ± 0.307 µM with HEK - MDR1 G1199T cells and 4.04 ± 0.0776 µM with HEK - MDR1 G1199A cells.

As a reminder, the Km is the concentration of substrate that gives half-maximal velocity. A word on the EC50: it is the concentration that produces a half-maximal response.

These data come from patent US7445897B2, “Sequence variants of multi-drug resistance genes, MDR1 and MRP1, and methods for assessment of drug penetration and disposition” (University of Washington, priority 2004, dated 2008).
